Among the test systems are ACHN renal; CCRF-CEM leukemia; DU-145 prostate; HCC-2998 colon; LOX IMVI melanoma; M14 melanoma; MCF7 breast; MDA-MB-231 breast; MDA-MB-435; MDA-N; NCI-H23 lung; NCI-H522 lung; OVCAR-4 ovarian; PC-3 prostate; SF-539 CNS; SR leukemia; T-47D breast; TK-10 renal; SK-MEL-2 melanoma.
What all share (assay): inhibition of tumour cell growth, NCI panel, 48 h

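A five-concentration, 48-hour dose response in 96-well plates underlies each endpoint, interpolated linearly between surrounding concentrations. The concentration for full growth arrest is given as TGI.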 Bounds are passed on as bounds.

With `CN(C)Cc1cc(N=Nc2cccc(Cl)c2)ccc1O`, the TGI with ACHN renal came out at 13.5 µM; in the test with CCRF-CEM leukemia it was 36.3 µM; in the test on DU-145 prostate, 27.9 µM; with HCC-2998 colon, 27.9 µM; in the test with LOX IMVI melanoma, 16.6 µM; in the test with M14 melanoma, 25.5 µM. The TGI with MCF7 breast turned out to be 29 µM; in the test with MDA-MB-231 breast, 36.7 µM; with MDA-MB-435, 15.8 µM; with MDA-N, 23.9 µM; with NCI-H23 lung, 57.9 µM; in the test with NCI-H522 lung, 23.9 µM. Besides, the TGI in the test on OVCAR-4 ovarian is 34.7 µM; in the test on PC-3 prostate, 38.1 µM; in the test with SF-539 CNS, 33 µM; in the test on SR leukemia, 54.5 µM; in the test on T-47D breast, 34 µM; in the test with TK-10 renal, 23.2 µM.
As to `N#CC1Cc2cc3c(cc21)OCO3` (stereo not drawn), the TGI with ACHN renal, in the test with CCRF-CEM leukemia, in the test on DU-145 prostate, in the test on HCC-2998 colon, in the test on LOX IMVI melanoma and in the test with M14 melanoma was over 100 µM throughout. The TGI in the test with MCF7 breast, in the test with MDA-MB-231 breast, with MDA-MB-435, with MDA-N, in the test with NCI-H23 lung and with OVCAR-4 ovarian was over 100 µM in each case. Moreover, the TGI with PC-3 prostate, in the test on SF-539 CNS, in the test on SK-MEL-2 melanoma, in the test with SR leukemia, with T-47D breast and in the test on TK-10 renal was over 100 µM throughout.
Turning to `COc1cc2c(c(O)c1OC)C(O)C1CCC(=O)N1C2c1cccc2ccccc12` (stereo not drawn), the TGI in the test on ACHN renal, in the test on CCRF-CEM leukemia, in the test with DU-145 prostate, in the test on M14 melanoma, in the test on MCF7 breast and with MDA-MB-231 breast was over 100 µM each time. In addition, the TGI in the test with MDA-MB-435, with MDA-N, in the test with NCI-H23 lung, in the test on NCI-H522 lung, in the test on OVCAR-4 ovarian and in the test with PC-3 prostate was over 100 µM in each case. Moreover, the TGI in the test with SF-539 CNS, in the test on SK-MEL-2 melanoma, in the test on SR leukemia and with T-47D breast was over 100 µM each time.
In the case of `CCCN1CC=C(c2cc(C(=O)OCC)[nH]c2-c2cc(C)no2)C1=O`, the TGI in the test on CCRF-CEM leukemia, in the test with DU-145 prostate, in the test with HCC-2998 colon, in the test with LOX IMVI melanoma, in the test with M14 melanoma and in the test on MCF7 breast was over 100 µM throughout. For the same compound, the TGI with MDA-MB-231 breast, in the test with MDA-MB-435, with MDA-N, with NCI-H23 lung, with OVCAR-4 ovarian and in the test on PC-3 prostate was over 100 µM each time. For the same compound, the TGI with SF-539 CNS, in the test with SK-MEL-2 melanoma, in the test on SR leukemia and with T-47D breast was over 100 µM in each case.
Turning to `Cc1n[nH]c(=O)n1C1CCCC1`, the TGI with ACHN renal, with CCRF-CEM leukemia, in the test on DU-145 prostate, with HCC-2998 colon, with LOX IMVI melanoma and in the test on M14 melanoma was over 100 µM throughout. The TGI in the test on MCF7 breast, in the test with MDA-MB-231 breast, in the test with MDA-MB-435, in the test on MDA-N, in the test on NCI-H23 lung and in the test on NCI-H522 lung was over 100 µM each time. Further, the TGI in the test on OVCAR-4 ovarian, in the test on PC-3 prostate, in the test on SF-539 CNS, with SR leukemia, in the test on T-47D breast and with TK-10 renal was over 100 µM throughout.
With `C=CCOC(=O)Cn1cc(C)c(=O)[nH]c1=O`, the TGI in the test with ACHN renal, in the test with CCRF-CEM leukemia, with DU-145 prostate, in the test on HCC-2998 colon, in the test with LOX IMVI melanoma and in the test on M14 melanoma was over 100 µM in each case. Moreover, the TGI in the test with MCF7 breast, with MDA-MB-231 breast, with MDA-MB-435, in the test on MDA-N, in the test on NCI-H23 lung and in the test with OVCAR-4 ovarian was over 100 µM throughout. Besides, the TGI in the test with PC-3 prostate, with SF-539 CNS, in the test on SK-MEL-2 melanoma, with SR leukemia, with T-47D breast and in the test on TK-10 renal was over 100 µM in each case.
As to `O=C1Cc2c([nH]c3c(Cl)cccc23)-c2ccccc2N1`, the TGI in the test with ACHN renal, in the test with CCRF-CEM leukemia, in the test with DU-145 prostate, in the test on LOX IMVI melanoma, in the test with M14 melanoma and in the test with MCF7 breast was over 100 µM each time. The TGI with MDA-MB-231 breast, in the test on MDA-MB-435, with MDA-N, in the test with NCI-H23 lung, in the test with NCI-H522 lung and in the test with OVCAR-4 ovarian was over 100 µM each time. The TGI in the test on PC-3 prostate, in the test with SF-539 CNS, in the test with SR leukemia, in the test with T-47D breast and in the test with TK-10 renal was over 100 µM each time.
Take `C1=Nc2ccc(cc2)N=Cc2ccc(cc2)OCc2cccc(n2)COc2ccc1cc2`: the TGI in the test with ACHN renal, with CCRF-CEM leukemia, in the test on DU-145 prostate, in the test with M14 melanoma, in the test with MCF7 breast and in the test with MDA-MB-231 breast was over 100 µM in each case. Moreover, the TGI in the test with MDA-MB-435, with MDA-N, in the test with NCI-H23 lung, with NCI-H522 lung, with OVCAR-4 ovarian and in the test on PC-3 prostate was over 100 µM each time. In addition, the TGI with SF-539 CNS, in the test with SK-MEL-2 melanoma, in the test on SR leukemia and with T-47D breast was over 100 µM throughout.
As for `CCOC(=O)C1C(c2ccc(OC)cc2)c2c([nH]n(-c3ccccc3)c2=O)CC1(O)OCC` (stereo not drawn), the TGI in the test with ACHN renal, with DU-145 prostate, with HCC-2998 colon, in the test with LOX IMVI melanoma, with M14 melanoma and in the test with MCF7 breast was over 100 µM each time. Besides, the TGI with MDA-MB-231 breast, with MDA-MB-435, with MDA-N, in the test on NCI-H23 lung, in the test with NCI-H522 lung and in the test with OVCAR-4 ovarian was over 100 µM throughout. Moreover, the TGI with PC-3 prostate, in the test with SF-539 CNS, with SK-MEL-2 melanoma, with SR leukemia, in the test on T-47D breast and in the test on TK-10 renal was over 100 µM throughout.
As to `S=c1nc(Cc2ccc(Cl)cc2)[nH][nH]1`, the TGI with ACHN renal, in the test with CCRF-CEM leukemia, in the test with DU-145 prostate, in the test on HCC-2998 colon, with LOX IMVI melanoma and in the test on M14 melanoma was over 100 µM each time. Besides, the TGI in the test on MCF7 breast, in the test on MDA-MB-231 breast, in the test on MDA-MB-435, in the test on MDA-N, in the test with NCI-H23 lung and in the test with OVCAR-4 ovarian was over 100 µM throughout. The TGI in the test on PC-3 prostate is over 100 µM; in the test on SF-539 CNS, over 100 µM; with SK-MEL-2 melanoma, over 100 µM; with SR leukemia it was over 100 µM; with T-47D breast, 99.6 µM; in the test on TK-10 renal, over 100 µM.
In the case of `Cc1ncc([N+](=O)[O-])n1CCN(C)C(=O)CCCn1ccnc1[N+](=O)[O-]`, the TGI with ACHN renal, in the test with CCRF-CEM leukemia, in the test on DU-145 prostate, in the test with LOX IMVI melanoma, in the test with M14 melanoma and with MCF7 breast was over 100 µM throughout. Moreover, the TGI with MDA-MB-231 breast, with MDA-MB-435, in the test on MDA-N, in the test with NCI-H23 lung, in the test on NCI-H522 lung and in the test with OVCAR-4 ovarian was over 100 µM throughout. Besides, the TGI in the test on PC-3 prostate, in the test on SF-539 CNS, in the test with SK-MEL-2 melanoma, with SR leukemia, in the test with T-47D breast and with TK-10 renal was over 100 µM throughout.
With `CN(C)c1ccc(/C=C(\NC(=O)c2ccccc2)C(=O)NCC(=O)O)cc1`, the TGI with ACHN renal, in the test with CCRF-CEM leukemia, in the test with DU-145 prostate, in the test with HCC-2998 colon, in the test on LOX IMVI melanoma and with M14 melanoma was over 100 µM each time. For the same compound, the TGI in the test on MCF7 breast, in the test on MDA-MB-231 breast, in the test with MDA-MB-435, in the test on MDA-N, in the test on NCI-H23 lung and in the test on NCI-H522 lung was over 100 µM throughout. Also, the TGI with PC-3 prostate, in the test on SF-539 CNS, in the test with SK-MEL-2 melanoma, in the test on SR leukemia and with T-47D breast was over 100 µM each time.
